Assays:
RPMI-8226 = test: Antiproliferative activity against human RPMI-8226 cells; assay type: functional, cell-based
[1] = target: T1, Geranylgeranyl pyrophosphate synthase (Homo sapiens) (UniProt O95749); test: Inhibition of GGPPS in human A549 cells assessed as reduction in cell growth at 100 uM incubated for 72 hrs by MTT assay relative to control; assay type: cell-based
T1 sequence (whole entry): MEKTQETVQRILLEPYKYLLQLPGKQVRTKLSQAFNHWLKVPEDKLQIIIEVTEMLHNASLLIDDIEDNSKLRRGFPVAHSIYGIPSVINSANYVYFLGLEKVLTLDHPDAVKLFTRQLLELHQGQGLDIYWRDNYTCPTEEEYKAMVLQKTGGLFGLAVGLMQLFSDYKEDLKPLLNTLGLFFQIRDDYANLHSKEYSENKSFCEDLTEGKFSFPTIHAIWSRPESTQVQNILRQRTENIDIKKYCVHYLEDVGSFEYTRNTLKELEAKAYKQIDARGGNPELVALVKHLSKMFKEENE

[2] = target: T1, Geranylgeranyl pyrophosphate synthase (Homo sapiens); test: Inhibition of GGPPS in human MIA PaCa-2 cells assessed as reduction in cell growth at 100 uM incubated for 72 hrs by MTT assay relative to control; assay type: cell-based
[3] = target: T1, Geranylgeranyl pyrophosphate synthase (Homo sapiens); test: Inhibition of GGPPS in human MDA-MB-231 cells assessed as reduction in cell growth at 100 uM incubated for 72 hrs by MTT assay relative to control; assay type: cell-based
[4] = target: T2, Farnesyl pyrophosphate synthase (Homo sapiens, UniProt P14324); test: Inhibition of FPPS (unknown origin)
T2 sequence (P14324 whole entry): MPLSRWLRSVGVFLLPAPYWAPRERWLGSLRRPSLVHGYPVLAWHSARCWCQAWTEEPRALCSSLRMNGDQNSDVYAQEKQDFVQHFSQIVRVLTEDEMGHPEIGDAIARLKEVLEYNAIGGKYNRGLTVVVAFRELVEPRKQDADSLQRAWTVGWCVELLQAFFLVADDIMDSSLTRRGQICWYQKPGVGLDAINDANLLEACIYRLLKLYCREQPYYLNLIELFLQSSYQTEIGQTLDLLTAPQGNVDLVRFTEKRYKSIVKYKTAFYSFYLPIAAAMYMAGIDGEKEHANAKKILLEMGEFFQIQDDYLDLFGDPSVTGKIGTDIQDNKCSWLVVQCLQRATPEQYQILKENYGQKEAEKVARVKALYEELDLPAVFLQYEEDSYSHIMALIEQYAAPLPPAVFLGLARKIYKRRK

[5] = target: T3, Geranylgeranyl pyrophosphate synthase (Homo sapiens, UniProt O95749); test: Inhibition of recombinant human N- terminal His-tagged GGPPS (1 to 300 residues) expressed in Escherichia coli
T3 sequence (O95749 whole entry): T1 sequence (whole entry)

IC50 [4]	IC50 [5]	Structure (SMILES)	also measured
–	–	CC(C)=CCCC(C)=CCCc1cn(CC(O)(P(=O)(O)O)P(=O)(O)O)nn1	EC50 (RPMI-8226): 190 nM
–	–	CCCCc1cn(CCCC(O)(P(=O)(O)O)P(=O)(O)O)nn1	growth inhibition (GI) [1]: < 30%; growth inhibition (GI) [2]: < 30%; growth inhibition (GI) [3]: < 30%
49600 nM	173 nM	CC(C)=CCC/C(C)=C/CCc1cn(CC(O)(P(=O)(O)O)P(=O)(O)O)nn1	–
33300 nM	75 nM	CC(C)=CCC/C(C)=C\CCc1cn(CC(O)(P(=O)(O)O)P(=O)(O)O)nn1	–

Source: ChEMBL document CHEMBL4732201, “Synthesis and preliminary anticancer evaluation of new triazole bisphosphonate-based isoprenoid biosynthesis inhibitors” (Eur J Med Chem, 2021)
